Experimental findings from patent US9603860B2, “Pharmaceutical compositions comprising active drugs, contraceptive kits comprising active drugs, and methods of administering the same” (LABORATORIOS LEON FARMA SA, priority 2010, dated 2017) are described below.

SMILES strings stand for the structures.

The nature of data set [1]: Specific area by BET method. Type of data set: physicochemical. As to the method: The specific area was determined by the BET method.
Data set [2] in a line: Particle size distribution by laser diffraction in wet dispersion. The format is physicochemical. The conditions noted are these: dispersant water. On the procedure: The analysis of the particle size distribution of each batch was performed by laser diffraction method in wet dispersion (Helos sensor, Sympatec with the wet disperser Quixel). The dispersant used was water. The full particle dispersion was ensured by ultrasonication.

The subject of the next data set is ovulation. Briefly: Contraceptive efficiency trial, 24/4 regimen (ovulation inhibition, Example 5, Part 3). The format is in vivo, human. On the procedure:
The study was an open-label monocentric trial. […] Excluded were subjects with a (suspected) pregnancy, active or past thromboembolic disorder, present or past severe hepatic disease, carcinoma of the endometrium or other known or suspected estrogen-dependent neoplasia, undiagnosed vaginal bleeding, use of liver enzyme-inducing drugs and other drugs.
The subjects received daily treatment with tablets containing about 4 mg DRSP with a 24/4 regimen during two treatment cycles. The subjects started treatment on the 1st day of the cycle (i.e., the first day of onset of vaginal bleeding) following the screening visit. […]
Blood sampling for hormonal determination (progesterone, 17-beta-estradiol, FSH and LH) was performed every 3 days from day 1 to day 84 and assessments of weight, blood pressure and heart rate were performed at each visit. Serum progesterone, 17-beta-estradiol, FSH and LH concentrations were measured with validated commercial in vitro diagnostic kits (V1DAS, ELFA Biomerieux). […]
The occurrence of ovulation during treatment was determined on the basis of serum progesterone concentration, using the criteria of Landgren et al. Thus, an ovulation was judged to have occurred in case of progesterone concentrations >5.04 ng/ml-sustained for at least 2 consecutive progesterone samples.

`C[C@]12CCC(=O)C=C1[C@@H]1C[C@@H]1[C@H]1[C@@H]3[C@@H]4C[C@@H]4[C@@]4(CCC(=O)O4)[C@@]3(C)CC[C@@H]12` [compound 080169, Drospirenone]: the Specific area in data set [1] was 0.45 m^2/g. Moreover, in data set [2], the d10 is on record as 2.9 μm, the d50 was determined as 24.5 μm, the d90 worked out at 37.1 μm and the d99 is given as 48.9 μm.
Molecule `C[C@]12CCC(=O)C=C1[C@@H]1C[C@@H]1[C@H]1[C@@H]3[C@@H]4C[C@@H]4[C@@]4(CCC(=O)O4)[C@@]3(C)CC[C@@H]12` [PR100311, Drospirenone] came in with a Specific area in data set [1] of 0.66 m^2/g.
Consider `C[C@]12CCC(=O)C=C1[C@@H]1C[C@@H]1[C@H]1[C@@H]3[C@@H]4C[C@@H]4[C@@]4(CCC(=O)O4)[C@@]3(C)CC[C@@H]12` [compound 080204, Drospirenone], for which, in data set [1], the Specific area was determined as 0.83 m^2/g. In data set [2], this molecule came in with a d10 of 4.4 μm, a d50 of 13.1 μm, a d90 of 24.8 μm and a d99 of 34.5 μm.
The corresponding values for `C[C@]12CCC(=O)C=C1[C@@H]1C[C@@H]1[C@H]1[C@@H]3[C@@H]4C[C@@H]4[C@@]4(CCC(=O)O4)[C@@]3(C)CC[C@@H]12` [compound 080257, Drospirenone] are 0.77 m^2/g, 5.3 μm, 12.6 μm, 23.4 μm and 35.3 μm.
Regarding `C[C@]12CCC(=O)C=C1[C@@H]1C[C@@H]1[C@H]1[C@@H]3[C@@H]4C[C@@H]4[C@@]4(CCC(=O)O4)[C@@]3(C)CC[C@@H]12` [PR100003, Drospirenone], the Specific area in data set [1] came to 0.26 m^2/g. Moreover, in data set [2], the d10 was found to be 5.9 μm, the d50 was found to be 22.4 μm, the d90 amounted to 37.4 μm and the d99 is listed as 56.1 μm.
Consider `C[C@]12CCC(=O)C=C1[C@@H]1C[C@@H]1[C@H]1[C@@H]3[C@@H]4C[C@@H]4[C@@]4(CCC(=O)O4)[C@@]3(C)CC[C@@H]12` [DRSP, 6b,7b:15b,16b-Dimethylen-3-oxo-17a-pregn-4-ene-21,17-carbolactone], for which, in the data set with ovulation (24/4 regimen, ovulation = progesterone >5.04 ng/ml in 2 consecutive samples), the “ovulation during the 2 treatment cycles” value is “no ovulation occurred”. For the same molecule, the “women with progesterone above 5.04 ng/mL (return of ovulation) in 28-day follow-up cycle” value with ovulation (upon cessation of treatment) is recorded as 17 out of 20.
In the case of `C[C@]12CCC(=O)C=C1[C@@H]1C[C@@H]1[C@H]1[C@@H]3[C@@H]4C[C@@H]4[C@@]4(CCC(=O)O4)[C@@]3(C)CC[C@@H]12` [compound 080053, Drospirenone], the Specific area in data set [1] came to 0.63 m^2/g. Further, in data set [2], the d10 is on record as 7.2 μm, the d50 came to 19.8 μm, the d90 is 34.2 μm and the d99 was 44.8 μm.
